Measurements: paper PMC8521653 (ACS Medicinal Chemistry Letters, 2021)
Marks after values point to notes of the source that are not given here. Peptide text beside a SMILES is read from it. * marks the point of attachment. Cbz = O=C(OCc1ccccc1)*

What was measured:
[1] = test system: GFP-LC3B-RFP expressing HEK-293 cells; assay: Autophagic flux, GFP signal in GFP-LC3B-RFP expressing HEK-293 cells; type: cell-based; settings: for effect on autophagy (in words) / activity at 10 µM: 10 μM; for activity at 10 µM: Homo sapiens, HEK293, 24 h, GFP signal percentage of DMSO control with SEM, HEK-293 cells, read-out: autophagy at 10 μM (%)
[2] = test system: PREP-catalyzed α-synuclein dimerization in N2A cells; settings: luminescence signal percentage of DMSO control with SEM, ref Kilpeläinen et al.[16]; cited from earlier work
[3] = target: T1, purified recombinant porcine PREP (Sus scrofa, UniProt P23687); assay: Inhibition of the proteolytic activity of PREP, microplate assay with Suc-Gly-Pro-AMC substrate; type: biochemical; settings: for PREP activity at 1 nM inhibitor concentration compared to control: remaining activity; for IC50: Suc-Gly-Pro-AMC, 30 °C, pH 7.0, 95% CI in brackets
T1 construct: made in house; host or cells: E. coli
T1 sequence (P23687 whole entry): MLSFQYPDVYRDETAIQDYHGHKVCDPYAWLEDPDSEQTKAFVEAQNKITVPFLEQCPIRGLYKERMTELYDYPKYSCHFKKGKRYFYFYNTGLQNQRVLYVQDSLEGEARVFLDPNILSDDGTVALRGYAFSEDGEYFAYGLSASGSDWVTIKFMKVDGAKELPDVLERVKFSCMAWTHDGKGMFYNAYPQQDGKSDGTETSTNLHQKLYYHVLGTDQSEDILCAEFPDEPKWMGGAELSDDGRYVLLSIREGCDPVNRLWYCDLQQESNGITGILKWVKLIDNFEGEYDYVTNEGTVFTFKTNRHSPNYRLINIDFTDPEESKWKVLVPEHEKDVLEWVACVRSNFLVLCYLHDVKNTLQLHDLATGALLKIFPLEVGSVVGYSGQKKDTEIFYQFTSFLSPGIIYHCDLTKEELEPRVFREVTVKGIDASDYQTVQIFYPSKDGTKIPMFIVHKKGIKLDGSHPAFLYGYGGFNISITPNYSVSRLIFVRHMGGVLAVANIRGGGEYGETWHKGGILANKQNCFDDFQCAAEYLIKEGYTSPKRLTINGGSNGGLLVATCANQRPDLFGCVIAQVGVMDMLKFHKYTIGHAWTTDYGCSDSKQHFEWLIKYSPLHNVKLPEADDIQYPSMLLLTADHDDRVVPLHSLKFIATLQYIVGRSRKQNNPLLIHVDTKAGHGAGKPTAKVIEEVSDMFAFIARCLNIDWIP
Method: Inhibition of the proteolytic activity (IC50) of PREP was determined using purified recombinant porcine PREP[25] as previously described.[16]
Measuring biological activity
Inhibitory Activity. The IC 50 values for compounds were determined in the microplate assay procedure described in Kilpeläinen et al.1 Porcine PREP cDNA was expressed in E.coli cells and purified as described in Venäläinen et al.3 The enzyme dilution was preincubated with 0.1 M sodium–potassium phosphate buffer (75 µL, pH 7.0) containing the compounds at desired concentrations in 30 °C for 30 min. The final concentration of the compounds in the assay mixture varied from 1 mM-1 nM and the final concentration of the enzyme was approximately 0.1 nM as measured by Bradford´s method. The enzyme reaction was carried out by adding 25 µL of 4 mM Suc-Gly-Pro-AMC substrate dissolved in 0.1 M sodium–potassium phosphate buffer (pH 7.0) into the assay mixture and incubating at 30° C for 60 min. The reaction was terminated by adding […] of 1 M sodium acetate buffer (pH 4.2). Formation of AMC was measured with Victor2 multilabel counter (PerkinElmer; excitation/emission 360 nm/ 460 nm), with a standard curve of 0.1-5 nM AMC in 0.1 M sodium–potassium phosphate buffer present. All activity measurements were made at least in triplicate. The inhibitory activities (percent of control) were plotted against the log concentration of the compound, and the IC50-value was determined by non-linear regression utilizing GraphPad Prism 7.0 software. […]

[4] = test system: PREP-catalyzed α-synuclein dimerization in N2A cells; assay: αSyn dimerization, protein fragment complementation assay (PCA) in N2A cells; type: cell-based; settings: for activity at 10 µM: Mus musculus, luminescence signal percentage of DMSO control with SEM, N2A cells; for increase of aSyn dimerization compared to DMSO control: 10 µM proteasome inhibitor, positive control, % increase
Method: The effect of the compounds on autophagy was determined by using GFP-LC3B-RFP expressing HEK-293 cells.[15],[34] The effect on αSyn dimerization was evaluated with a protein fragment complementation assay (PCA) by using N2A cells.[10],[15],[16] The increase in autophagic flux was measured as a decrease in GFP signal due to increased degradation of GFP-LC3B, and the decrease in αSyn dimerization was measured as a decrease in luminescence, both compared with DMSO (Table 1). […] Rapamycin and starvation are known to induce autophagy, lowering the fluorescence to 65–70% in our assays, and were therefore used as reference compounds for this. Test compounds were assayed at 10 μM concentration with 0.1% DMSO. A graphical representation of the mean values (± SEM) can be seen in the Supporting Information (Figure S1).
Measuring biological activity […]
α-Synuclein Dimerization. αSyn dimerization was assessed by using PCA, which was carried out as described previously in Kilpeläinen et al.1 In short, N2A cells were seeded on poly-L-lysine-coated 96-well plates (Isoplate™ white wall, PerkinElmer Life Sciences) at the density of 13 000 cells/well. 24 h post-plating, reporter plasmids were transfected with 100 ng of total plasmid DNA per well. N2A cells were transfected with 25 ng of both αSyn-Gluc1 and αSyn-Gluc2 and 50 ng mock-plasmid or non-tagged human PREP expression plasmid 50 ng/well. Lipofectamine 3000 (Thermo Fischer Scientific) was used as the transfection reagent. 100 µL normal growth medium was added to all wells at 24 h post-transfection. 48 hours post-transfection medium was changed to phenol red free DMEM without serum containing the tested compounds at 10 µM concentration, with 0,1% DMSO as vehicle control. Proteasome inhibitors lactacystin (AG Scientific) at 10 µM and MG-132 (Enzo Life Sciences) at 10 µM served as a positive control. The PCA signal was assessed by injecting 25 µL of native coelenterazine (Nanolight Technology) in phenol red free DMEM per well (final concentration 6 µM). The emitted luminescence was read using Varioskan LUX multimode microplate reader (Thermo Scientific). For each experimental condition, 4 replicate wells were used in each experiment, and at least 3 separate experiments for each treatment except for 15c which had 2 separate experiments. […]

Row | Compound | IC50 ([3]; recombinant porcine PREP) [nM] | effect on autophagy (in words) [1] | activity at 10 µM [1] [%] | effect on αSyn dimerization (in words) ([4]; 10 μM) | activity at 10 µM ([4]; 10 μM) [%] | further results
1 | CN(CC(=O)N1CCC[C@H]1c1nnn[nH]1)C(=O)CCCc1ccccc1 [Compound 1c] | – | some effect | 84 | – | – | α-synuclein dimerization at 10 μM (%) [2]: 75 ^e (7.7) %
2 | C[C@@H](C(=O)N1CCC[C@H]1c1nnn[nH]1)N(C)C(=O)CCCc1ccccc1 [Compound 1d] | – | no significant activity | 93 | – | – | α-synuclein dimerization at 10 μM (%) [2]: 75 ^e (7.3) %
3 | O=C(c1ncc[nH]1)[C@@H]1CCCN1C(=O)[C@@H]1CCCN1C(=O)CCCc1ccccc1 [Compound 2a, reference compound] | < 1 | lack of activity | 95 | lack of activity | 99 | PREP activity at 1 nM inhibitor concentration compared to control [3]: 43%
4 | O=C(CCc1ccccc1)N1CCC[C@H]1C(=O)N1CCC[C@H]1c1nnn[nH]1 [Compound 15a] | 1000 | – | 96 | – | 116 | –
5 | C[C@H](NC(=O)CCc1ccccc1)C(=O)N1CCC[C@H]1c1nnn[nH]1 [Compound 15b] | 3900 | – | 90 | – | 98 | –
6 | CN(CC(=O)N1CCC[C@H]1c1nnn[nH]1)C(=O)CCc1ccccc1 [Compound 15c] | – | – | 95 | – | 95 | –
7 | O=C(CCCCc1ccccc1)N1CCC[C@H]1C(=O)N1CCC[C@H]1c1nnn[nH]1 [Compound 16a] | 770 | – | 98 | – | 102 | –
8 | C[C@H](NC(=O)CCCCc1ccccc1)C(=O)N1CCC[C@H]1c1nnn[nH]1 [Compound 16b] | 5000 | – | 94 | – | 92 | –
9 | O=C(CCCc1cccs1)N1CCC[C@H]1C(=O)N1CCC[C@H]1c1nnn[nH]1 [Compound 17a] | 94 | slightly improved the activity in inducing autophagy | 87 | maintained some activity on αSyn dimerization | 87 | –
10 | Cn1nnc([C@@H]2CCCN2C(=O)[C@@H]2CCCN2C(=O)CCCc2ccccc2)n1 [Compound 19a] | – | capable of inducing autophagy | 85 | lost the activity on αSyn dimerization | 101 | –
11 | O=C(CCCc1ccccc1)N1CCC[C@H]1C(=O)N1CCC[C@H]1c1nnc[nH]1 [Compound 20a] | – | some minor activity in modulating autophagy | 87 | no activity on αSyn dimerization | 96 | –
12 | C[C@H](NC(=O)CCCc1ccccc1)C(=O)N1CCC[C@H]1c1nnc[nH]1 [Compound 20b] | – | – | 91 | – | 110 | –
13 | O=C(CCCc1ccccc1)N1CCC[C@H]1C(=O)N1CCC[C@H]1c1ccn[nH]1 [Compound 30a] | – | some minor activity in modulating autophagy | 89 | no activity on αSyn dimerization | 99 | IC50 value (in words) ([3]; recombinant porcine PREP): micromolar range
14 | CC(C)C[C@@H](C=O)NC(=O)[C@H](CC(C)C)NC(=O)[C@H](CC(C)C)NC(=O)OCc1ccccc1 [MG-132, reference compound] (Cbz-Leu-Leu-Leu-aldehyde) | – | – | – | – | – | increase of aSyn dimerization compared to DMSO control ([4]; PCA): 29%
15 | CO/C1=C\C(C)=C\[C@@H](C)[C@@H](O)[C@@H](C)C/C(C)=C/C=C/[C@H](OC)[C@@H]([C@@H](C)[C@@H](O)[C@H](C)[C@@]2(O)C[C@@H](O)[C@H](C)[C@@H](C(C)C)O2)OC1=O [bafilomycin A1, reference compound] | – | – | – | – | – | increase in autophagic flux assay GFP signal compared to DMSO control ([1]; 20 nM, autophagy inhibitor control, % increase): 40%
16 | CC(=O)N[C@@H](CSC(=O)[C@]1([C@@H](O)C(C)C)NC(=O)[C@H](C)[C@@H]1O)C(=O)O [lactacystin, reference compound] | – | – | – | – | – | increase of aSyn dimerization compared to DMSO control ([4]; PCA): 32%
17 | CO[C@H]1C[C@@H]2CC[C@@H](C)[C@@](O)(O2)C(=O)C(=O)N2CCCC[C@H]2C(=O)O[C@H]([C@H](C)C[C@@H]2CC[C@@H](O)[C@H](OC)C2)CC(=O)[C@H](C)/C=C(\C)[C@@H](O)[C@@H](OC)C(=O)[C@H](C)C[C@H](C)/C=C/C=C/C=C/1C [rapamycin, reference compound] | – | – | – | – | – | decrease in autophagic flux assay GFP signal compared to DMSO control ([1]; 0.5 µM, positive control, % decrease): 34%; fluorescence (GFP signal) relative to DMSO control ([1]; reference for autophagy induction, in our assays): 65–70%

Further lines, with some results ahead:

Row | IC50 ([3]; recombinant porcine PREP) [nM] | Compound | effect on autophagy (in words) [1] | activity at 10 µM [1] [%] | effect on αSyn dimerization (in words) ([4]; 10 μM) | activity at 10 µM ([4]; 10 μM) [%] | further results
18 | 1100 | C[C@H](NC(=O)CCCc1cccs1)C(=O)N1CCC[C@H]1c1nnn[nH]1 [Compound 17b] | inactive for both functions | 92 | inactive for both functions | 93 | –
19 | 520000 | Cn1nnnc1[C@@H]1CCCN1C(=O)[C@@H]1CCCN1C(=O)CCCc1ccccc1 [Compound 18a] | capable of inducing autophagy | 88 | lost the activity on αSyn dimerization | 105 | –
20 | 1100 | O=C(CCCc1ccccc1)N1CCC[C@H]1C(=O)N1CCC[C@H]1c1cnn[nH]1 [Compound 25a] | – | 93 | – | 104 | –
21 | < 1 | O=C(CCc1ccccc1)N1CCC[C@H]1C(=O)N1CCC[C@H]1c1ncc[nH]1 [Compound 26a] | – | 102 | still retaining some modulating activity | 89 | PREP activity at 1 nM inhibitor concentration compared to control [3]: 41%
22 | < 1 | O=C(CCCc1ccccc1)N1CCC[C@H]1C(=O)N1CCC[C@H]1c1ncc[nH]1 [Compound 27a] | no effect on autophagy | 96 | – | 72 | PREP activity at 1 nM inhibitor concentration compared to control [3]: 25%; decrease of aSyn dimerization compared to DMSO control ([4]; 10 μM, PCA, Figure S1A, % decrease): 28%
23 | 2100 | C[C@H](NC(=O)CCCc1ccccc1)C(=O)N1CCC[C@H]1c1ncc[nH]1 [Compound 27b] | did not retain either of the activities | 106 | did not retain either of the activities | 110 | –
24 | < 1 | O=C(CCCCc1ccccc1)N1CCC[C@H]1C(=O)N1CCC[C@H]1c1ncc[nH]1 [Compound 28a] | – | 102 | – | 110 | PREP activity at 1 nM inhibitor concentration compared to control [3]: 20%
25 | 44 | O=C(CCCc1ccccc1)N1CCC[C@H]1C(=O)N1CCC[C@H]1c1cnc[nH]1 [Compound 29a] | some minor activity in modulating autophagy | 92 | no activity on αSyn dimerization | 98 | –
